Values joined by “and” are separate entries in the source; they are usually repeats but may differ in a detail not shown here. Equal values may be shown once. Results filed as inconclusive are left out.
Tested on: nude mice, A549 intrarenal xenograft, tumor weight change
Assay: NCI In Vivo Anticancer Drug Screen. Data for tumor model A549 Human Adenocarcinoma of Lung with characteristics of Type II Alveolar Epithelial cells (intrarenal inoculation) in NU/NU BALB/C (nude) mice
Conditions: endpoint: mean tumor weight change, schedule: Q04DX003 (ip), higher = larger tumour
Protocol: The antitumor activity of compounds was measured in mice bearing transplantable tumors. Survival or tumor size were measured and the results are expressed as the measurement made in the treated group (T) divided by the measurement made in the vehicle treated control group (C). The tumor model used in this assay is A549 Human Adenocarcinoma of Lung with characteristics of Type II Alveolar Epithelial cells (intrarenal inoculation) in NU/NU BALB/C (nude) mice

[1] = dose: 200.0 mg/kg/injection, vehicle: Klucel (hydroxypropylcellulose) (HPC)
[2] = dose: 25.0 mg/kg/injection, vehicle: saline with Tween-80
[3] = dose: 50.0 mg/kg/injection, vehicle: saline with Tween-80
[4] = dose: 100.0 mg/kg/injection, vehicle: saline with Tween-80
[5] = dose: 150.0 mg/kg/injection, vehicle: other
[6] = dose: 150.0 mg/kg/injection, vehicle: sodium bicarbonate
[7] = dose: 150.0 mg/kg/injection, vehicle: saline with Tween-80
[8] = dose: 300.0 mg/kg/injection, vehicle: saline with Tween-80
[9] = dose: 75.0 mg/kg/injection, vehicle: saline
[10] = dose: 150.0 mg/kg/injection, vehicle: saline
[11] = dose: 12.5 mg/kg/injection, vehicle: saline with Tween-80
[12] = dose: 25.0 mg/kg/injection, vehicle: saline
[13] = dose: 50.0 mg/kg/injection, vehicle: saline
[14] = dose: 100.0 mg/kg/injection, vehicle: saline
[15] = dose: 200.0 mg/kg/injection, vehicle: saline

Cc1ccc2c(c1)n([O-])c1cc(Cl)ccc1[n+]2=O
T/C (dose: 35.0 mg/kg/injection, vehicle: saline with Tween-80): 102 % of control
T/C (dose: 70.0 mg/kg/injection, vehicle: saline with Tween-80): 65 % of control
T/C (dose: 140.0 mg/kg/injection, vehicle: saline with Tween-80): 108 % of control
T/C (dose: 280.0 mg/kg/injection, vehicle: saline with Tween-80): 94 % of control

O=C([O][Bi]([c]1ccccc1)[c]1ccccc1)c1ccccc1
T/C (dose: 25.0 mg/kg/injection, vehicle: Klucel (hydroxypropylcellulose) (HPC)): 83 % of control
T/C (dose: 50.0 mg/kg/injection, vehicle: Klucel (hydroxypropylcellulose) (HPC)): 76 % of control
T/C [1]: 73 % of control

CC1/C=C/C=C/CC/C=C/C=C/C=C/C=C/C(OC2OC(C)C(O)C(N)C2O)CC2OC(CC(O)C(O)CCC(O)CC(O)CC(O)CC(=O)OC(C)C(C)C1O)CC(O)C2C(=O)O (stereo not given)
T/C [2]: 97 % of control
T/C [3]: 69 % of control
T/C [4]: 62 % of control

Oc1c(Cl)cc(Cl)cc1C=NCCSc1ccc(Cl)cc1
T/C (dose: 150.0 mg/kg/injection, vehicle: Klucel (hydroxypropylcellulose) (HPC)): 90 % of control
T/C (dose: 300.0 mg/kg/injection, vehicle: Klucel (hydroxypropylcellulose) (HPC)): 100 % of control
T/C (dose: 600.0 mg/kg/injection, vehicle: Klucel (hydroxypropylcellulose) (HPC)): 83 % of control

O=C(NC(Cc1ccc(I)cc1)C(=O)O)c1ccc(Br)cc1 (stereo not given)
T/C (dose: 37.5 mg/kg/injection, vehicle: other): 51 % of control
T/C (dose: 37.5 mg/kg/injection, vehicle: sodium bicarbonate): 78 % of control
T/C (dose: 75.0 mg/kg/injection, vehicle: other): 7 % of control
T/C (dose: 75.0 mg/kg/injection, vehicle: sodium bicarbonate): 103 % of control
T/C [5]: 9 % of control
T/C [6]: 83 % of control

S=C(NCNC(=S)c1ccncc1)c1ccncc1
T/C [7]: 420 % of control
T/C [8]: 260 % of control
T/C (dose: 600.0 mg/kg/injection, vehicle: saline with Tween-80): 317 % of control

N[C@@H](Cc1c[nH]c2ccccc12)C(=O)Nc1nncs1
T/C (dose: 150.0 mg/kg/injection, vehicle: suspension in saline): 74 % of control
T/C (dose: 300.0 mg/kg/injection, vehicle: suspension in saline): 67 % of control
T/C (dose: 600.0 mg/kg/injection, vehicle: suspension in saline): 70 % of control

CC(O)CCC(=O)c1ccoc1 (stereo not given)
T/C (dose: 24.0 mg/kg/injection, vehicle: saline): 186 % of control
T/C (dose: 32.0 mg/kg/injection, vehicle: saline): 82 % of control

NNC(=O)c1ccncc1
T/C (dose: 37.5 mg/kg/injection, vehicle: saline): 99 % of control
T/C [9]: 104 % of control
T/C [10]: 69 % of control

CC(C)(C)NC(C1=CC(C)(C)c2ccccc2C1=O)c1ccccc1 (stereo not given)
T/C (dose: 100.0 mg/kg/injection, vehicle: Klucel (hydroxypropylcellulose) (HPC)): 107 % of control
T/C [1]: 65 % of control

C/C(=N\NC(=S)N1CC2CCC(CC2)C1)c1cccc(C)n1
T/C [11]: 114 % of control
T/C [2]: 81 % of control

CCCCCCCCCCCCCCCCCCOCC(CO)OC (stereo not given)
T/C [7]: 47 % of control and 53 % of control
T/C [8]: 56 % of control and 73 % of control

CCC(NC(N)=O)C(CC)NC(N)=O (stereo not given)
T/C (dose: 6.25 mg/kg/injection, vehicle: saline with Tween-80): 68 % of control
T/C [11]: 120 % of control
T/C [2]: 102 % of control

CN(Cc1cnc2nc(N)nc(N)c2n1)c1ccc(C(=O)N[C@@H](CCC(=O)O)C(=O)O)cc1
T/C (dose: 27.0 mg/kg/injection, vehicle: sodium bicarbonate): 100 % of control

CCCCCCNc1nc(NCCCCCC)c2[nH]c(NCCCCCC)nc2n1
T/C (dose: 75.0 mg/kg/injection, vehicle: saline with Tween-80): 52 % of control
T/C [7]: 117 % of control

c1ccc([Te][Te]c2ccccc2)cc1
T/C (dose: 9.38 mg/kg/injection, vehicle: saline with Tween-80): 71 % of control
T/C (dose: 18.75 mg/kg/injection, vehicle: saline with Tween-80): 59 % of control
T/C (dose: 37.5 mg/kg/injection, vehicle: saline with Tween-80): 122 % of control

COc1ccc2oc(-c3ccc(Cl)cc3)c(N3CCN(C)CC3)c2c1
T/C [9]: 21 % of control
T/C [10]: 24 % of control

O=C1c2ccccc2C(Cl)(c2ccc(Cl)cc2)c2ccc(Cl)cc21 (stereo not given)
T/C [7]: 244 % of control

Cc1ccccc1N=C(c1ccccc1)C1C(=O)c2ccccc2C1=O
T/C [5]: 101 % of control
T/C (dose: 300.0 mg/kg/injection, vehicle: other): 75 % of control
T/C (dose: 600.0 mg/kg/injection, vehicle: other): 104 % of control
T/C (dose: 1200.0 mg/kg/injection, vehicle: other): 121 % of control

CCC1(O)C(=O)OCc2c1cc1n(c2=O)Cc2cc3cc4c(cc3nc2-1)OCO4 (stereo not given)
T/C (dose: 4.0 mg/kg/injection, vehicle: saline with Tween-80): 6 % of control

CN=NN(C)C(=O)NC
T/C [12]: 37 % of control
T/C (dose: 43.2 mg/kg/injection, vehicle: saline): 27 % of control
T/C [13]: 72 % of control
T/C (dose: 72.0 mg/kg/injection, vehicle: saline): 28 % of control
T/C [14]: 8 % of control
T/C (dose: 120.0 mg/kg/injection, vehicle: saline): 8 % of control
T/C [15]: -34 % of control and -27 % of control

C/C(=N\NC(=O)c1ccccc1O)c1cccc(/C(C)=N/NC(=O)c2ccccc2O)n1
T/C [12]: 97 % of control
T/C [13]: 71 % of control
T/C [14]: 65 % of control
T/C [15]: 77 % of control

Cc1cccc(OCC(O)CN2CC2)c1 (stereo not given)
T/C [3]: 82 % of control
T/C [4]: 46 % of control
T/C (dose: 200.0 mg/kg/injection, vehicle: saline with Tween-80): 81 % of control

Nc1cc2c(cc1Br)-c1c(C(=O)O)cccc1C2O (stereo not given)
T/C [6]: 74 % of control
T/C (dose: 300.0 mg/kg/injection, vehicle: sodium bicarbonate): 78 % of control
T/C (dose: 600.0 mg/kg/injection, vehicle: sodium bicarbonate): 68 % of control
T/C (dose: 1200.0 mg/kg/injection, vehicle: sodium bicarbonate): 56 % of control

[Cl][Pt][Cl].[NH-]C(CO)C(=O)O (stereo not given)
T/C (dose: 37.5 mg/kg/injection, vehicle: water): 93 % of control
T/C (dose: 75.0 mg/kg/injection, vehicle: water): 247 % of control
T/C (dose: 150.0 mg/kg/injection, vehicle: water): 63 % of control

CN(C)N=Nc1ccc(C(N)=O)cc1
T/C (dose: 22.5 mg/kg/injection, vehicle: saline with Tween-80): 65 % of control
T/C (dose: 45.0 mg/kg/injection, vehicle: saline with Tween-80): 55 % of control
T/C (dose: 90.0 mg/kg/injection, vehicle: saline with Tween-80): 54 % of control
T/C (dose: 180.0 mg/kg/injection, vehicle: saline with Tween-80): 17 % of control
T/C (dose: 216.0 mg/kg/injection, vehicle: saline with Tween-80): 39 % of control
T/C (dose: 360.0 mg/kg/injection, vehicle: saline with Tween-80): 2 % of control and 15 % of control

From PubChem BioAssay AID278 (DTP/NCI, 2004)
